From patent publication US12715946B2, “Composition” (JOSHO GAKUEN EDUCATIONAL FOUNDATION, priority 2020, dated 2026)

Test system: Chinese hamster ovary cells (CHO cells)
Assay: Evaluation of cellular uptake of FITC-labeled model drugs (flow cytometry, MFI)
Type: cell-based
Details: 5 μg/mL, 2 hours incubation, n=3
Experimental: Cellular uptake evaluation of the model drugs described above was conducted using Examples 1 to 3 (polymeric compounds of Manufacturing Examples 1 to 3) or Comparative Examples 1 to 2 (compounds of Manufacturing Examples 4 and 5). A suspension of Ham's F-12 medium (manufactured by Fujifilm Wako Chemical Corporation) containing Chinese hamster ovary cells (CHO cells, 2×10^5 cells/mL) was prepared and seeded at 500μL/well to each well of a 24-well plate. The cells were incubated in a CO2 gas incubator (37° C., 5% CO2) for 24 hours.
Then, the compositions of the Examples and Comparative Examples (Table 1-6) were prepared by mixing 250 μL/well of Ham's F-12 medium containing the above model drugs and 250 μL/well of Ham's F-12 medium containing the manufacturing examples.
Then, the supernatant was removed from each well of the pre-cultured 24-well plate using an aspirator and the cells were washed twice with 500 μL/well of phosphate-buffered saline. Then, the aforementioned compositions were gently added to the wells and incubated in a carbon dioxide incubator for 2 hours. The number of experiments was n=3.
After 2 hours, the supernatants of medium were removed, and the cells were washed twice with 500 μL/well of phosphate-buffered saline. Then, 100 μL/well of trypsin-EDTA solution (0.25% trypsin, 1 mmol/L EDTA solution, Life Technologies) was added, and cultured CHO cells were detached from 24-well plates.
Then, 400 μL/well of trypan blue solution (Fujifilm Wako Chemical Corporation) was added to suspend the cells, and the cells were collected in microtubes. The collected cell suspensions were passed through a cell strainer, and the mean fluorescence intensity (MFI) was measured by flow cytometry. The cells without the polymeric compound (only the model drug was added) were used as controls.
While only the model drug introduced into the cells emits fluorescence. MFI represents the arithmetic average of the fluorescence intensity per cell, and a larger value of MFI indicates a more efficient intracellular uptake of the model drug.

O=C([O-])CCCCCCCNC(=O)c1ccccc1O.[Na+] [Comparative Example 2, Sodium salcaprozate]
MFI ± S.D. (Model drug: FITC-CTB (Molecular weight 11,000)): 3.7 ± 0.1 | MFI ± S.D. (Model drug: FITC-INS (Molecular weight 5,800)): 19.7 ± 0.2 | MFI ± S.D. (Model drug: FITC-IgG (Molecular weight 150,000)): 3.2 ± 0.1 | MFI ± S.D. (Model drug: FITC-IgM (Molecular weight 900,000)): 3.1 ± 0.2 | MFI ± S.D. (Model drug: FITC-OVA (Molecular weight 45,000)): 3.6 ± 0.4 | MFI ± S.D. (Model drug: FITC-Tf (Molecular weight 77,000)): 6.7 ± 0.2
